Measurements: patent US20230136702A1, “Inhibitors of Human Herpesviruses” (The Governors of the University of Alberta, priority 2020, published 2023)
pEC50, pIC50: −log10 of the molar value. Where a name gives a salt, the structure may show the parent alone.

Columns and labels:
[1] = test system: HCMV US3-6-EGFP-HCMV-AD169 strain; assay: In vitro inhibitory (antiviral) activity against HCMV, GFP reporter in MRC5 cells; type: cell-based, Human cytomegalovirus (HCMV); details: Human betaherpesvirus 5, AD169, MRC5, 96 h, read-out: HCMV Antiviral EC50 range
Description: (§1) Exemplary compounds (e.g., as described herein) were prepared as 20 mM stock solutions with DMSO. Reference compound was ganciclovir (Sigma). Compounds were tested at 8 concentrations, 3-fold serial dilutions, in duplicate for EC50 and CC50 determinations. The highest testing concentrations of the exemplary compounds and reference compound were 40 μM and 100 μM, respectively. The final concentration of DMSO in the cell culture was 0.5%.
HCMV US3-6-EGFP-HCMV-AD169 strain was obtained from Institute Pasteur of Shanghai, CAS. The virus contains GFP as a reporter of the viral replication.
(§2) MRC5 cells (ATCC CCL-171) was obtained from the ATCC and maintained in the EMEM (Sigma) supplemented with 10% FBS (HyClone), 1% L-glutamine (Gibco), 1% NEAA (Gibco), and 1% PS (Hyclone). Reagent:
In 96-well plates, MRC5 cells were seeded at 20,000 cells per well and cultured at 37° C. and 5% C02 overnight. Next day, compounds (8 concentrations, 3-fold dilutions, in duplicate) and US3-6-EGFP-HCMV-AD169 (MOI=0.1) were added to the cells. The resulting cultures were incubated at 37° C. and 5% C02 for 4 days. Fluorescence intensity was determined by Acumen Cellista (TTP LabTech). The antiviral activity of each compound was calculated based on the inhibition of expression of GFP at each concentration normalized by the cell control (cells without virus infection or compound treatment).
(§3) Antiviral activity and cytotoxicity of the compounds were expressed as % Inhibition and % Viability, respectively, and calculated with the formulas below:
Inhibition (%)=100−(Raw dataCPD−AverageCC)/(AverageVC−AverageCC)*100
(§4) Raw dataCPD indicates the values of the compound-treated wells; AverageVC, AverageCC and AverageMC indicate the average values of the virus control (cells infected with virus, without compound treatment), cell control and medium control wells, respectively.
(§5) EC50 and CC50 values were calculated using the GraphPad Prism software.

[2] = Cytotoxicity in MRC5 cells without virus infection (CCK8); type: cell-based; details: human
Description: as §1, §2
Cytotoxicity of the compounds was assessed under the same conditions, but without virus infection, in parallel. Cell viability was measured with CCK8 following the manufacturer's manual. CC50 values were then calculated based on cytotoxicity at the test concentrations normalized by the medium control (medium only).
as §3
Viability (%)=(Raw dataCPD−AverageMC)/(AverageCC−AverageMC)*100
as §4, §5

hERG potassium channel = biological target: T1, hERG potassium channel (Homo sapiens, UniProt Q12809); assay: Inhibition of hERG potassium channel, automated patch clamp (SyncroPatch 384PE) in CHO cells; type: cell-based; details: CHO cells stably expressing hERG, room temperature, 0.494-40.00 μM; read-out: CHO-hERG Activity Range
T1 construct: host or cells: CHO cells stably expressing hERG
T1 sequence (Q12809 whole entry): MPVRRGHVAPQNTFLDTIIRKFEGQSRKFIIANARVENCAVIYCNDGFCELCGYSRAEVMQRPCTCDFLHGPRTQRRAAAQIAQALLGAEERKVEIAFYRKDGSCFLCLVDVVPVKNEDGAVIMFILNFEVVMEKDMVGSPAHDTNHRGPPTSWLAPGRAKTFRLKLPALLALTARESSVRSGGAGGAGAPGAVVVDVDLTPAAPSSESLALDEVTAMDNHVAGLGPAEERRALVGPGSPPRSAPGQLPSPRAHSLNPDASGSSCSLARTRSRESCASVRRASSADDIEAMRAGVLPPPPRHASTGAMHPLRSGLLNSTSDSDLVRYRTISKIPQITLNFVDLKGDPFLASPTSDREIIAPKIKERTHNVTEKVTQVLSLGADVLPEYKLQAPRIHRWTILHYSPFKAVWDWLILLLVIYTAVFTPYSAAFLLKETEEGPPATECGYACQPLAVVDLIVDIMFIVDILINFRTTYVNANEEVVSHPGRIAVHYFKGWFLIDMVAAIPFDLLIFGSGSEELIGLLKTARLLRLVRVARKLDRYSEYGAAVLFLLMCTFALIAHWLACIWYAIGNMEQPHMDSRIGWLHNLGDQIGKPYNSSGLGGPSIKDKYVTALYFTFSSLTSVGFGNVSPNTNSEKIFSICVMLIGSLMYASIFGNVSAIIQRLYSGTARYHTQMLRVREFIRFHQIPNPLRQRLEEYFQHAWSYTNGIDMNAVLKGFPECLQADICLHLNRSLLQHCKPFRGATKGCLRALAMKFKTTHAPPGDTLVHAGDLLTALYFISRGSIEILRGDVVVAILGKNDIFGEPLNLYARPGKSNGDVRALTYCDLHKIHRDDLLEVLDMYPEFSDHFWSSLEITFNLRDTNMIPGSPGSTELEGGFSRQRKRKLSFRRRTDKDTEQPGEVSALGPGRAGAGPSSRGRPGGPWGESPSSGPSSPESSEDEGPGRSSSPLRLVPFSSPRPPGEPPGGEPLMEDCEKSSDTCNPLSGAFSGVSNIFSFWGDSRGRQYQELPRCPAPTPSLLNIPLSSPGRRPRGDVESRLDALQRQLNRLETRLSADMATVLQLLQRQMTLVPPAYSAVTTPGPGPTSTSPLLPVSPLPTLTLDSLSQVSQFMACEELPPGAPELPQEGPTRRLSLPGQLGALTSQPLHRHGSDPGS
Description: This automated patch clamp method (SyncroPatch 384PE) CHO cells stably expressing hERG potassium channels from Sophion Biosciences were used for this test.
The cells were cultured in a humidified and air-controlled (5% C02) incubator at 37° C.
The CHO cells which were at least two days after plating and more than 75% confluent would be used for experiments. Before testing, cells were harvested using TrypLE and resuspended in the physiological solution at the room temperature.
For the electrophysiological recordings the following solutions were used (Table 5). The physiological solution and external solution were prepared at least one month. The intracellular solution was prepared in batches aliquoted, and stored at 4° C. until used.
Exemplary compounds (e.g., as described herein) were dissolved in 100% DMSO to obtain stock solutions for different test concentrations. Then the stock solutions were further diluted into external solution to achieve final concentrations for testing. Visual check for precipitation was conducted before testing. Final DMSO concentration in external solution was not more than 0.30% for the compounds.
From this holding potential of −80 mV, the voltage was first stepped to −50 mV for 80 ms for leak subtraction, and then stepped to +20 mV for 4800 ms to open hERG channels. After that, the voltage was stepped back down to −50 mV for 5000 ms, causing a “rebound” or tail current, which was measured and collected for data analysis. Finally, the voltage was stepped back to the holding potential (−80 mV, 1000 ms). This voltage command protocol was repeated every 20000 msec. This command protocol was performed continuously during the test (vehicle control and test compound).
hERG SyncroPatch assay was conducted at room temperature. The Setup, Prime Chip, Catch and Seal Cells, Amplifier Settings, Voltage and Application Protocols were established with Biomek Software (Nanion).
One addition of 40 μL of the vehicle was applied, followed by 300s for a baseline period. Then the doses of exemplary test compounds were added with 40 μL. The exposure of test compound at each concentration was no less than 300s. […] Five concentrations (0.494 μM, 1.48 μM, 4.44 μM, 13.33 μM and 40.00 μM) were tested for each compound. Minimum 2 replicates per concentration were obtained.
Within each well recording, percent of control values were calculated for each test compound concentration current response based on peak current in presence of reference control (current response/peak current)×100%. The Dose-Response curves were fit to the standard Hill equation as shown below:
Ipost cpd/Ipre cpd=Bottom+(Top−Bottom)/(1+10^((Log IC50−X)*HillSlope))
Where X is the logarithm of concentration, Ipost cpd/Ipre cpd is the normalized peak current amplitude, Top is 1 and Bottom is equal to 0.
Curve-fitting and IC50 calculations were performed by GraphPad Prism 5.0. If the inhibition obtained at the lowest concentration tested was over 50%, or at the highest concentration tested was less than 50%, we reported the IC50 as less than lowest concentration, or higher than highest concentration, respectively.

[3] = biological target: T2, HCMV DNA polymerase (UL54) (Human cytomegalovirus, UniProt P08546); assay: HCMV DNA polymerase enzyme inhibition assay (ProFoldin, fluorescence); type: biochemical; details: 37° C., duplicate, max 40 μM
T2 construct: 6His (C); made in house; host or cells: Sf9 insect cells (baculovirus, pFastBac)
T2 sequence (P08546 whole entry): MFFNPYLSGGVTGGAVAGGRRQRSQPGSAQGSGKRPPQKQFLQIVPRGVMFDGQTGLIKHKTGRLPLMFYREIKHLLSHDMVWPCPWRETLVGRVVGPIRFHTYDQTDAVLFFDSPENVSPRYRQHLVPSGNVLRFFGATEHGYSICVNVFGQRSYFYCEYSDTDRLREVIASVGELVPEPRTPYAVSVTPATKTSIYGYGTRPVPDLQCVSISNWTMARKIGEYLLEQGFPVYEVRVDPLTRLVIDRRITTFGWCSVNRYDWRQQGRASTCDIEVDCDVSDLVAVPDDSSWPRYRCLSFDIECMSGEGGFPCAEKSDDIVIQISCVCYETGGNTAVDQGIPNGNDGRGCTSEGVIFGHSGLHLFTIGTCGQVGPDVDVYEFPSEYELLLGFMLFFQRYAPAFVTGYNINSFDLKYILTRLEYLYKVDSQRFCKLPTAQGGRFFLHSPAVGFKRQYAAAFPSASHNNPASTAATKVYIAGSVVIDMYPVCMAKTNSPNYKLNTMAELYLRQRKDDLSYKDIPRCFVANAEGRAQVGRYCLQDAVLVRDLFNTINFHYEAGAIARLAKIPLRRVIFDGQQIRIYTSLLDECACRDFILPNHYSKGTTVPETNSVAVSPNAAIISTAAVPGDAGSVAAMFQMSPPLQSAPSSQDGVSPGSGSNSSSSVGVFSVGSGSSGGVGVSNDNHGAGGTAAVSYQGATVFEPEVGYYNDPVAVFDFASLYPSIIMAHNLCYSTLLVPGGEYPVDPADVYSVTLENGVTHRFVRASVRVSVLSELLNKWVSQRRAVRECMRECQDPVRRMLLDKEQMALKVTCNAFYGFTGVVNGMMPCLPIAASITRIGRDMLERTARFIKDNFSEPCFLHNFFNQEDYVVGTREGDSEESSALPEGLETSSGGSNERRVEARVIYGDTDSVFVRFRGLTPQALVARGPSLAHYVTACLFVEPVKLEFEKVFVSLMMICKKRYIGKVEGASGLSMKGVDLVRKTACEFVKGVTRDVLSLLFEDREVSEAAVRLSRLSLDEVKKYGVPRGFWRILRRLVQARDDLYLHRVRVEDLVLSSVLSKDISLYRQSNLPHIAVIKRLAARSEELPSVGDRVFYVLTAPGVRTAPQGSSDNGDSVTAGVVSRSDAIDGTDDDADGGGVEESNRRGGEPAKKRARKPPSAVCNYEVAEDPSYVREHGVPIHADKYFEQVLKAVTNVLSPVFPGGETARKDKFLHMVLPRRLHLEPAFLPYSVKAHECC
Description: The HCMV DNA polymerase assay was developed by ProFoldin. The assay detects the formation of DNA from the DNA polymerase reaction in the presence of a DNA template, dATP and dGTP. The formation of the DNA is detected by using a fluorescence method. The fluorescence intensity increases when DNA is generated by the enzyme reaction.
A time-course experiment was performed aside the enzyme inhibition assay to ensure the assay was sensitive to the enzyme inhibition. The wells for the time-course experiment contained 1 μL of DMSO and the same reaction mixture as that in the enzyme inhibition assay. The time-course data varied between plates. The reactions were stopped when the fluorescence reached a value of about 3700 for each plate.
Exemplary solid compounds (e.g., as described herein) were dissolved in DMSO to make […] stock solutions. PFA (phosphonoformic acid or phosphonomethanoic acid) was used as a positive control. The compound mother plates were prepared at 50× concentrated compound concentrations with a 2-fold serial dilution. All the exemplary compounds except PFA were diluted in DMSO. PFA was diluted in water. The maximum compound concentration was 2 mM that gave the final concentration of 40 μM in the assay. One microliter of the 50× stock solutions was transferred into the assay plates. Three copies of assay plates were prepared, two for HCMV DNA polymerase assay and one for compound background control.
The following is the protocol for enzyme inhibition performed at 37° C.:
1. Prepared a premix composed of 35347 μL of H2O, 5220 μL of 10× assay buffer and 149 μL of 350×HCMV DNA polymerase.
2. Added 39 μL of the premix into the wells with 1 μL of the compound. Incubated the mixture for at least 5 min.
3. Added 10 μL of 5×dNTP (0.1 mM), 5×DNA template solutions into each well and incubated the solution until the fluorescence value reached a value about 3700 for the DMSO-only control wells.
4. Added 50 μL of the 1× dye into the wells.
5. Read the fluorescence at emission wavelength of 535 nm and excitation wavelength of 485 nm.
For the compound background reading, added 99 μL of water in the wells with 1 μL of compounds and read the fluorescence. […] The 0% inhibition value F0 was from the wells with DMSO (no inhibitor).
The background values were subtracted from the fluorescence reading to get the net fluorescence values. The net fluorescence values were used for calculation of the percentage inhibition.
The assay was performed in duplicate for the test article at […], 1.25, 0.625, 0.313, 0.156 and 0.078 μM. The IC50 curves were obtained by fitting the percentage inhibition values with the compound concentrations using Prism GraphPad software.

Structure (SMILES) | pIC50 [3] | pEC50 [1] | CC50 at 4 days [2] | pIC50 (hERG potassium channel)
CC1(C)CN(C(=O)Cn2c(=O)c(C(=O)NCc3ccc(Cl)cc3)cc3nc(N4CCN(CC(=O)O)C4=O)cnc32)C1 [Compound 5, [3-(7-{[(4-chlorophenyl)methyl]carbamoyl}-5-[2-(3,3-dimethylazetidin-1-yl)-2-oxoethyl]-6-oxo-5,6-dihydropyrido[2,3-b]pyrazin-2-yl)-2-oxoimidazolidin-1-yl]acetic acid] |  | < 6.00 | > 40 µM | < 5.00
CC1(C)CN(C(=O)Cn2c(=O)c(C(=O)NCc3ccc(Cl)cc3)cc3cc(N4CCN(CC(=O)O)C4=O)cnc32)C1 [Compound 7, [3-(6-{[(4-chlorophenyl)methyl]carbamoyl}-8-[2-(3,3-dimethylazetidin-1-yl)-2-oxoethyl]-7-oxo-7,8-dihydro-1,8-naphthyridin-3-yl)-2-oxoimidazolidin-1-yl]acetic acid] |  | < 6.00 | > 40 µM | < 5.00
CN(CCN1CCN(c2cnc3c(cc(C(=O)NCc4ccc(Cl)cc4)c(=O)n3CC(=O)N3CC(C)(F)C3)n2)C1=O)S(C)(=O)=O [Compound 24, N-[(4-chlorophenyl)methyl]-5-[2-(3-fluoro-3-methylazetidin-1-yl)-2-oxoethyl]-2-(3-{2-[(methanesulfonyl)(methyl)amino]ethyl}-2-oxoimidazolidin-1-yl)-6-oxo-5,6-dihydropyrido[2,3-b]pyrazine-7-carboxamide] | < 6.00 |  |  | 
CC1(F)CN(C(=O)Cn2c(=O)c(C(=O)NCc3ccc(Cl)cc3)cc3nc(N4CCN(CCNC(=O)CN)C4=O)cnc32)C1 [Compound 38, N-[(4-chlorophenyl)methyl]-5-[2-(3-fluoro-3-methylazetidin-1-yl)-2-oxoethyl]-2-{3-[2-(glycylamino)ethyl]-2-oxoimidazolidin-1-yl}-6-oxo-5,6-dihydropyrido[2,3-b]pyrazine-7-carboxamide-hydrochloride salt] | > 6.00 |  |  | 
CC1(F)CN(C(=O)Cn2c(=O)c(C(=O)NCc3ccc(Cl)cc3)cc3nc(N4CCN(CCN5CCOCC5)C4=O)cnc32)C1 [Compound 39, N-[(4-chlorophenyl)methyl]-5-[2-(3-fluoro-3-methylazetidin-1-yl)-2-oxoethyl]-2-{3-[2-(morpholin-4-yl)ethyl]-2-oxoimidazolidin-1-yl}-6-oxo-5,6-dihydropyrido[2,3-b]pyrazine-7-carboxamide] | < 6.00 |  |  | 

Continued, in another order:

pIC50 [3] | Structure (SMILES) | pEC50 [1] | CC50 at 4 days [2] | pIC50 (hERG potassium channel)
> 6.00 | CN1CCN(c2cnc3c(cc(C(=O)NCc4ccc(F)cc4)c(=O)n3CC(=O)N3CC4(CC4)C3)n2)C1=O [Compound 10, 5-[2-(5-azaspiro[2.3]hexan-5-yl)-2-oxoethyl]-N-[(4-fluorophenyl)methyl]-2-(3-methyl-2-oxoimidazolidin-1-yl)-6-oxo-5,6-dihydropyrido[2,3-b]pyrazine-7-carboxamide] |  |  | 
> 6.00 | CN1CCN(c2cnc3c(cc(C(=O)NCc4ccc(C#N)cc4)c(=O)n3CC(=O)N3CC4(CC4)C3)n2)C1=O [Compound 11, 5-[2-(5-azaspiro[2.3]hexan-5-yl)-2-oxoethyl]-N-[(4-cyanophenyl)methyl]-2-(3-methyl-2-oxoimidazolidin-1-yl)-6-oxo-5,6-dihydropyrido[2,3-b]pyrazine-7-carboxamide] |  |  | 
> 6.00 | CCOC(=O)CCN1CCN(c2cnc3c(cc(C(=O)NCc4ccc(Cl)cc4)c(=O)n3CC(=O)N3CC(C)(F)C3)n2)C1=O [Compound 17, ethyl 3-[3-(7-{[(4-chlorophenyl)methyl]carbamoyl}-5-[2-(3-fluoro-3-methylazetidin-1-yl)-2-oxoethyl]-6-oxo-5,6-dihydropyrido[2,3-b]pyrazin-2-yl)-2-oxoimidazolidin-1-yl]propanoate] |  |  | 
> 6.00 | CC1(F)CN(C(=O)Cn2c(=O)c(C(=O)NCc3ccc(Cl)cc3)cc3nc(N4CCN(CCC(=O)O)C4=O)cnc32)C1 [Compound 18, 3-[3-(7-{[(4-chlorophenyl)methyl]carbamoyl}-5-[2-(3-fluoro-3-methylazetidin-1-yl)-2-oxoethyl]-6-oxo-5,6-dihydropyrido[2,3-b]pyrazin-2-yl)-2-oxoimidazolidin-1-yl]propanoic acid] |  | > 40 µM | < 5.00
> 6.00 | CNCCN1CCN(c2cnc3c(cc(C(=O)NCc4ccc(Cl)cc4)c(=O)n3CC(=O)N3CC(C)(F)C3)n2)C1=O [Compound 23, N-[(4-chlorophenyl)methyl]-5-[2-(3-fluoro-3-methylazetidin-1-yl)-2-oxoethyl]-2-{3-[2-(methylamino)ethyl]-2-oxoimidazolidin-1-yl}-6-oxo-5,6-dihydropyrido[2,3-b]pyrazine-7-carboxamide-hydrogen chloride] |  |  | 
